From PubChem BioAssay (NCI)
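The compound was tested at five concentrations on cells cultured in 96-well plates, with a 48-hour exposure period. Definition used: TGI = concentration required for complete inhibition of growth.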

Tests used:
Test in all cases: NCI tumour cell line growth inhibition, 48 h
[1] = tested on: HT29 colon
[2] = tested on: U251 CNS
[3] = tested on: LOX IMVI melanoma
[4] = tested on: SK-MEL-28 melanoma
[5] = tested on: OVCAR-4 ovarian
[6] = tested on: A498 renal
[7] = tested on: SNB-75 CNS
[8] = tested on: MALME-3M melanoma
[9] = tested on: KM12 colon
[10] = tested on: UACC-257 melanoma
[11] = tested on: SN12K1 renal
[12] = tested on: MCF7 breast
[13] = tested on: P388/ADR leukemia
[14] = tested on: NCI-H522 lung
[15] = tested on: M19-MEL melanoma
[16] = tested on: OVCAR-5 ovarian
[17] = tested on: NCI/ADR-RES ovarian
[18] = tested on: KM20L2 colon
[19] = tested on: HCC-2998 colon
[20] = tested on: P388 leukemia
[21] = tested on: SF-268 CNS
[22] = tested on: IGROV1 ovarian
[23] = tested on: A549 NSCLC
[24] = tested on: NCI-H226 lung
[25] = tested on: UO-31 renal
[26] = tested on: SW-620 colon
[27] = tested on: HCT-116 colon
[28] = tested on: DMS 114 small cell lung
[29] = tested on: COLO 205 colon
[30] = tested on: EKVX NSCLC
[31] = tested on: SK-MEL-5 melanoma
[32] = tested on: HOP-18 NSCLC
[33] = tested on: SK-OV-3 ovarian
[34] = tested on: MOLT-4 leukemia
[35] = tested on: SN12C renal
[36] = tested on: SF-295 CNS
[37] = tested on: DLD-1 colon
[38] = tested on: XF 498 CNS
[39] = tested on: UACC-62 melanoma
[40] = tested on: HL-60(TB) leukemia
[41] = tested on: RPMI-8226 leukemia
[42] = tested on: NCI-H460 lung
[43] = tested on: CCRF-CEM leukemia
[44] = tested on: SNB-19 CNS
[45] = tested on: DMS 273 small cell lung
[46] = tested on: RXF 393 renal
[47] = tested on: NCI-H23 lung
[48] = tested on: HCT-15 colon
[49] = tested on: SNB-78 CNS
[50] = tested on: SK-MEL-2 melanoma
[51] = tested on: OVCAR-8 ovarian
[52] = tested on: SF-539 CNS
[53] = tested on: HOP-62 NSCLC
[54] = tested on: OVCAR-3 ovarian
[55] = tested on: K-562 leukemia
[56] = tested on: CAKI-1 renal
[57] = tested on: HOP-92 NSCLC

## COc1nc(SC)nc2c1cnn2C1OC(C(O)CO)C(OC)C1O (stereo unspecified)
[1]
  TGI: > 100 µM
[2]
  TGI: > 100 µM
[3]
  TGI: > 100 µM
[4]
  TGI: > 100 µM
[5]
  TGI: > 100 µM
[6]
  TGI: > 100 µM
[7]
  TGI: > 100 µM
[8]
  TGI: > 100 µM
[9]
  TGI: > 100 µM
[10]
  TGI: > 100 µM
[11]
  TGI: > 84 µM
[12]
  TGI: > 100 µM
[13]
  TGI: > 100 µM
[14]
  TGI: > 100 µM
[15]
  TGI: > 100 µM
[16]
  TGI: > 100 µM
[17]
  TGI: > 100 µM
[18]
  TGI: > 100 µM
[19]
  TGI: > 100 µM
[20]
  TGI: > 100 µM
[21]
  TGI: > 100 µM
[22]
  TGI: > 100 µM
[23]
  TGI: > 100 µM
[24]
  TGI: > 100 µM
[25]
  TGI: > 100 µM
[26]
  TGI: > 100 µM
[27]
  TGI: > 100 µM
[28]
  TGI: > 100 µM
[29]
  TGI: > 100 µM
[30]
  TGI: > 100 µM
[31]
  TGI: > 100 µM
[32]
  TGI: > 100 µM
[33]
  TGI: > 100 µM
[34]
  TGI: 69 µM
[35]
  TGI: > 100 µM
[36]
  TGI: > 100 µM
[37]
  TGI: > 100 µM
[38]
  TGI: > 100 µM
[39]
  TGI: > 100 µM
[40]
  TGI: > 100 µM
[41]
  TGI: > 100 µM
[42]
  TGI: > 100 µM
[43]
  TGI: > 100 µM
[44]
  TGI: > 100 µM
[45]
  TGI: > 100 µM
[46]
  TGI: > 100 µM
[47]
  TGI: > 100 µM
[48]
  TGI: > 100 µM
[49]
  TGI: > 100 µM
[50]
  TGI: > 100 µM
[51]
  TGI: > 100 µM
[52]
  TGI: > 100 µM
[53]
  TGI: > 100 µM
[54]
  TGI: > 100 µM
[55]
  TGI: > 100 µM

## CCCCC(C)C1CCC2(C)C=CC(=O)C(C)=C2C1O (stereo unspecified)
[1]
  TGI: > 100 µM
[2]
  TGI: > 100 µM
[3]
  TGI: > 100 µM
[4]
  TGI: > 100 µM
[5]
  TGI: > 100 µM
[6]
  TGI: > 100 µM
[7]
  TGI: > 100 µM
[56]
  TGI: > 100 µM
[9]
  TGI: > 100 µM
[10]
  TGI: > 100 µM
[11]
  TGI: > 100 µM
[12]
  TGI: > 100 µM
[13]
  TGI: > 100 µM
[14]
  TGI: > 100 µM
[15]
  TGI: > 100 µM
[16]
  TGI: > 100 µM
[17]
  TGI: > 100 µM
[18]
  TGI: > 100 µM
[19]
  TGI: > 100 µM
[20]
  TGI: > 100 µM
[21]
  TGI: > 100 µM
[22]
  TGI: > 100 µM
[23]
  TGI: > 100 µM
[24]
  TGI: > 100 µM
[25]
  TGI: > 100 µM
[26]
  TGI: > 100 µM
[27]
  TGI: > 100 µM
[28]
  TGI: > 100 µM
[29]
  TGI: > 100 µM
[30]
  TGI: > 100 µM
[31]
  TGI: > 100 µM
[32]
  TGI: > 100 µM
[33]
  TGI: > 100 µM
[34]
  TGI: > 100 µM
[35]
  TGI: > 100 µM
[36]
  TGI: > 100 µM
[37]
  TGI: > 100 µM
[38]
  TGI: > 100 µM
[39]
  TGI: > 100 µM
[40]
  TGI: > 100 µM
[41]
  TGI: > 100 µM
[57]
  TGI: > 100 µM
[42]
  TGI: > 100 µM
[43]
  TGI: > 100 µM
[44]
  TGI: > 100 µM
[45]
  TGI: > 100 µM
[46]
  TGI: > 100 µM
[47]
  TGI: > 100 µM
[48]
  TGI: > 100 µM
[49]
  TGI: > 100 µM
[50]
  TGI: > 100 µM
[51]
  TGI: > 100 µM
[52]
  TGI: > 100 µM
[53]
  TGI: > 100 µM
[54]
  TGI: > 100 µM
[55]
  TGI: > 100 µM
